Measurements taken from ChEMBL document CHEMBL1201862, “PubChem BioAssay data set” (2004).
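The compound was tested at five concentrations on cells cultured in 96-well plates, with a 48-hour exposure period. GI50 = concentration required for 50% inhibition of growth.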 Active and inactive are the calls of the source. Rule as the data show it: active = GI50 up to about 1.1 µM and inactive = higher.

Tests used:
Experiment in all cases: NCI-60 cell line screen, 48 h
[1] = test system: 786-0
[2] = test system: A498
[3] = test system: A549
[4] = test system: ACHN
[5] = test system: CAKI-1
[6] = test system: CCRF-CEM
[7] = test system: COLO 205
[8] = test system: DLD-1
[9] = test system: DMS-114
[10] = test system: DMS-273
[11] = test system: EKVX
[12] = test system: HCC 2998
[13] = test system: HCT-116
[14] = test system: HCT-15
[15] = test system: HL-60
[16] = test system: HOP-18
[17] = test system: HOP-62
[18] = test system: HOP-92
[19] = test system: HT-29
[20] = test system: IGROV-1
[21] = test system: K562
[22] = test system: KM-20L2
[23] = test system: KM12
[24] = test system: LOX IMVI
[25] = test system: LXFL 529
[26] = test system: M14
[27] = test system: M19-MEL
[28] = test system: MOLT-4
[29] = test system: Malme-3M
[30] = test system: NCI-H226
[31] = test system: NCI-H23
[32] = test system: NCI-H460
[33] = test system: NCI-H522
[34] = test system: OVCAR-3
[35] = test system: OVCAR-4
[36] = test system: OVCAR-5
[37] = test system: OVCAR-8
[38] = test system: RPMI-8226
[39] = test system: RXF 393
[40] = test system: SF-268
[41] = test system: SF-295
[42] = test system: SF-539
[43] = test system: SK-MEL-28
[44] = test system: SK-MEL-2
[45] = test system: SK-MEL-5
[46] = test system: SK-OV-3
[47] = test system: SN12C
[48] = test system: SNB-19
[49] = test system: SNB-75
[50] = test system: SNB-78
[51] = test system: SR
[52] = test system: SW-620
[53] = test system: TK-10
[54] = test system: U-251
[55] = test system: UACC-257
[56] = test system: UACC-62
[57] = test system: UO-31
[58] = test system: XF498
[59] = test system: MCF7
[60] = test system: NCI/ADR-RES

## NC(CO)c1ccc(OCc2ccccc2)cc1 (stereo not given)
[1]
  GI50: > 100 µM (inactive)
[2]
  GI50: > 100 µM (inactive)
[3]
  GI50: > 100 µM (inactive)
[4]
  GI50: > 100 µM (inactive)
[5]
  GI50: > 53.7 µM (inactive)
[6]
  GI50: 40.6 µM (inactive)
[7]
  GI50: > 100 µM (inactive)
[8]
  GI50: > 100 µM (inactive)
[9]
  GI50: > 100 µM (inactive)
[10]
  GI50: > 100 µM (inactive)
[11]
  GI50: 89.3 µM (inactive)
[12]
  GI50: > 100 µM (inactive)
[13]
  GI50: > 78.7 µM (inactive)
[14]
  GI50: > 91.8 µM
[15]
  GI50: 24.4 µM (inactive)
[16]
  GI50: > 100 µM (inactive)
[17]
  GI50: > 100 µM (inactive)
[18]
  GI50: 27.7 µM (inactive)
[19]
  GI50: > 100 µM (inactive)
[20]
  GI50: > 100 µM (inactive)
[21]
  GI50: > 100 µM (inactive)
[22]
  GI50: > 100 µM (inactive)
[23]
  GI50: > 100 µM (inactive)
[24]
  GI50: 47.3 µM (inactive)
[25]
  GI50: > 100 µM (inactive)
[26]
  GI50: > 100 µM (inactive)
[27]
  GI50: > 100 µM (inactive)
[28]
  GI50: 27.5 µM (inactive)
[29]
  GI50: > 100 µM (inactive)
[30]
  GI50: > 100 µM (inactive)
[31]
  GI50: > 100 µM (inactive)
[32]
  GI50: > 100 µM (inactive)
[33]
  GI50: 42 µM (inactive)
[34]
  GI50: > 100 µM (inactive)
[35]
  GI50: > 92.7 µM (inactive)
[36]
  GI50: > 100 µM (inactive)
[37]
  GI50: > 100 µM (inactive)
[38]
  GI50: > 100 µM (inactive)
[39]
  GI50: > 73.5 µM (inactive)
[40]
  GI50: > 100 µM (inactive)
[41]
  GI50: > 100 µM (inactive)
[42]
  GI50: > 100 µM (inactive)
[43]
  GI50: > 100 µM (inactive)
[44]
  GI50: > 100 µM (inactive)
[45]
  GI50: > 100 µM (inactive)
[46]
  GI50: > 100 µM (inactive)
[47]
  GI50: > 91.8 µM (inactive)
[48]
  GI50: > 63.7 µM (inactive)
[49]
  GI50: 20.3 µM (inactive)
[50]
  GI50: > 100 µM (inactive)
[51]
  GI50: 31.2 µM (inactive)
[52]
  GI50: 38.8 µM (inactive)
[53]
  GI50: > 100 µM (inactive)
[54]
  GI50: > 100 µM (inactive)
[55]
  GI50: > 100 µM (inactive)
[56]
  GI50: > 70.8 µM (inactive)
[57]
  GI50: 44.3 µM (inactive)
[58]
  GI50: 76.9 µM (inactive)

## CCCCCCc1cn([C@H]2C[C@H](O)[C@@H](CO)O2)c(=O)[nH]c1=O
[2]
  GI50: > 100 µM (inactive)
[3]
  GI50: > 100 µM (inactive)
[5]
  GI50: > 100 µM (inactive)
[6]
  GI50: > 100 µM (inactive)
[8]
  GI50: > 100 µM (inactive)
[9]
  GI50: > 100 µM (inactive)
[10]
  GI50: > 100 µM (inactive)
[11]
  GI50: > 100 µM (inactive)
[12]
  GI50: > 100 µM (inactive)
[13]
  GI50: > 100 µM (inactive)
[14]
  GI50: > 100 µM
[15]
  GI50: > 100 µM (inactive)
[16]
  GI50: > 100 µM (inactive)
[17]
  GI50: > 10 µM (inactive)
[18]
  GI50: > 100 µM (inactive)
[19]
  GI50: > 100 µM (inactive)
[20]
  GI50: > 100 µM (inactive)
[21]
  GI50: > 100 µM (inactive)
[22]
  GI50: > 100 µM (inactive)
[23]
  GI50: > 100 µM (inactive)
[24]
  GI50: > 100 µM (inactive)
[27]
  GI50: > 100 µM (inactive)
[59]
  GI50: > 100 µM (inactive)
[29]
  GI50: > 100 µM (inactive)
[30]
  GI50: > 100 µM (inactive)
[31]
  GI50: > 100 µM (inactive)
[32]
  GI50: > 100 µM (inactive)
[33]
  GI50: > 100 µM (inactive)
[60]
  GI50: > 100 µM (inactive)
[34]
  GI50: > 100 µM (inactive)
[35]
  GI50: > 100 µM (inactive)
[36]
  GI50: > 100 µM (inactive)
[37]
  GI50: > 100 µM (inactive)
[38]
  GI50: > 100 µM (inactive)
[39]
  GI50: > 100 µM (inactive)
[40]
  GI50: > 100 µM (inactive)
[41]
  GI50: > 31.6 µM (inactive)
[42]
  GI50: > 100 µM (inactive)
[43]
  GI50: > 100 µM (inactive)
[44]
  GI50: > 100 µM (inactive)
[45]
  GI50: > 100 µM (inactive)
[46]
  GI50: > 10 µM (inactive)
[47]
  GI50: > 100 µM (inactive)
[48]
  GI50: > 100 µM (inactive)
[49]
  GI50: > 100 µM (inactive)
[50]
  GI50: > 100 µM (inactive)
[52]
  GI50: > 100 µM (inactive)
[54]
  GI50: > 100 µM (inactive)
[55]
  GI50: > 100 µM (inactive)
[56]
  GI50: > 31.6 µM (inactive)
[57]
  GI50: > 100 µM (inactive)
[58]
  GI50: > 100 µM (inactive)
